Results published in patent publication US20240197871A1, “COMBINATION OF A CAR T CELL THERAPY AND AN IMMUNOMODULATORY COMPOUND FOR TREATMENT OF LYMPHOMA” (Juno Therapeutics, Inc., priority 2021, published 2024).

Test system: RL CD19+ tumor cells
Assay: Cytolytic function: co-culture of anti-CD19 CAR T cells with RL CD19+ tumor cells
Format: cell-based
Conditions: E:T 1:1
Protocol: To do so, CAR T cells were plated on ploy-D-lysine plates. CD19+ tumor cells transduced with IncuCyte® NucLight Red (Essen BioScience Inc.) were then added to the CAR T cells in addition to Compound C or vehicle control. Tumor cell number was measured over multiple days.
Treatment with CAR T cells in combination with either immunomodulatory compound led to lower tumor cell numbers than did CAR T cells alone or the compounds alone.

Compound: O=C1CC[C@H](N2Cc3c(OCc4ccc(CN5CCOCC5)cc4)cccc3C2=O)C(=O)N1 [Compound 2, (S)-3-[4-(4-morpholin-4-ylmethyl-benzyloxy)-1-oxo-1,3-dihydro-isoindol-2-yl]-piperidine-2,6-dione, reference compound]
- RL tumor cell number vs CAR T cells alone or compound alone (compound at 0.01 μM with anti-CD19 CAR T cells): lower
- RL tumor cell number vs CAR T cells alone or compound alone (compound at 0.1 μM with anti-CD19 CAR T cells): lower
